What all share (type): biochemical
Test [1] addresses T1, JAK1 (aa 850-1154, catalytic domain, GST-tag) (Homo sapiens, UniProt P23458).
T1 construct: JAK1 (aa 850-1154) and TYK2 (aa 871-1187) are expressed with an N-terminally fused GST-tag; GST (N); purchased Carna Biosciences, Inc; host or cells: baculovirus expression system
Put plainly: JAK kinase assay (HTRF, phosphorylation of TK substrate-biotin), JAK1. The note with it: ATP at Km (7 μM). In short, it runs like this:
(§1)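 EC50 values come from HTRF detection of phospho-biotin-TK peptide (1 μM) after 20-30 min RT reactions in Hepes pH 7.0 buffer with 0.75% DMSO. ATP was at Km for each enzyme: 7 μM JAK1, 4 μM JAK2, 2 μM JAK3, 13 μM TYK2. SEB (50 nM) was added for JAK1 and TYK2 only.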
On the technique in general: Time-resolved FRET reads energy transfer from a long-lived donor to a nearby acceptor.

The target of test [2] is T2, TYK2 (aa 871-1187, catalytic domain, GST-tag) (Homo sapiens, UniProt P29597).
T2 construct: JAK1 (aa 850-1154) and TYK2 (aa 871-1187) are expressed with an N-terminally fused GST-tag; GST (N); purchased Carna Biosciences, Inc; host or cells: baculovirus expression system
T2 sequence (P29597 871-1187): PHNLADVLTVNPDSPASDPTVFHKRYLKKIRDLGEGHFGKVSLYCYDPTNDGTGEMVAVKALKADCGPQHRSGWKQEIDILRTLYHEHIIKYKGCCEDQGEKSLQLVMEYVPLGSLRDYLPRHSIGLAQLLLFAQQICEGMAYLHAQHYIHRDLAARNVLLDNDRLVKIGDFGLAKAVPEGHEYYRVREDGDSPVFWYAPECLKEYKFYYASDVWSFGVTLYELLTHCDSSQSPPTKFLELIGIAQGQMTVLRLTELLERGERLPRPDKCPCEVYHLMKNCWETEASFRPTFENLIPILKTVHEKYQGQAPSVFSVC
Put plainly: JAK kinase assay (HTRF, phosphorylation of TK substrate-biotin), TYK2. The note with it: ATP at Km (13 μM). In short, it runs like this: as §1

Test [3] has as its target T3, JAK3 (catalytic domain, His-tag) (Homo sapiens, UniProt P52333).
T3 construct: All four purified enzymes contain only the catalytic domain; His (N); purchased Carna Biosciences, Inc; host or cells: baculovirus expression system
In words: JAK kinase assay (HTRF, phosphorylation of TK substrate-biotin), JAK3. The note with it: ATP at Km (2 μM). Put shortly:
as §1

In test [4] the target is T4, JAK2 (catalytic domain, His-tag) (Homo sapiens, UniProt O60674).
T4 construct: All four purified enzymes contain only the catalytic domain; His (N); purchased Carna Biosciences, Inc; host or cells: baculovirus expression system
In words: JAK kinase assay (HTRF, phosphorylation of TK substrate-biotin), JAK2. The note with it: ATP at Km (4 μM). In short, it runs like this:
as §1

Where [5] appears, read: HTRF assay, read-out: JAK1 kinase inhibitory activity (EC50 indicator).
Where [6] appears, read: HTRF assay, read-out: TYK2 kinase inhibitory activity (EC50 indicator).
Where [7] appears, read: HTRF assay, read-out: JAK3 kinase inhibitory activity (EC50 indicator).
[8] abbreviates: HTRF assay, read-out: JAK2 kinase inhibitory activity (EC50 indicator).
The mark [9] stands for this setting: HTRF assay, read-out: JAK1 kinase inhibitory activity (EC50).
Setting [10] is: HTRF assay, read-out: TYK2 kinase inhibitory activity (EC50).
[11] abbreviates: HTRF assay, read-out: JAK3 kinase inhibitory activity (EC50).
Setting [12] is: HTRF assay, read-out: JAK2 kinase inhibitory activity (EC50).
Setting [13] is: read-out: JAK1 kinase inhibitory activity (EC50 indicator).
Where [14] appears, read: read-out: TYK2 kinase inhibitory activity (EC50 indicator).
Where [15] appears, read: read-out: JAK3 kinase inhibitory activity (EC50 indicator).
Setting [16] is: read-out: JAK2 kinase inhibitory activity (EC50 indicator).

Where two headings read alike, the source gives them in different places.

T3 sequence (P52333 822-1111 limits assumed): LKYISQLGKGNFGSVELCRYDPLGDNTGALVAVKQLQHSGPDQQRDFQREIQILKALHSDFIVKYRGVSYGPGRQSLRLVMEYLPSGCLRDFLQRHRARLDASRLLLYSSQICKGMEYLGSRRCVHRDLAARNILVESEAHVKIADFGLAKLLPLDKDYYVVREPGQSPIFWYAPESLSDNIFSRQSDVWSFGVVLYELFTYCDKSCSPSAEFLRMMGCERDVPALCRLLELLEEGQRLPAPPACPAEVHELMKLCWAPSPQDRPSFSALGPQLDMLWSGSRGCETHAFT
T1 sequence (P23458 850-1154): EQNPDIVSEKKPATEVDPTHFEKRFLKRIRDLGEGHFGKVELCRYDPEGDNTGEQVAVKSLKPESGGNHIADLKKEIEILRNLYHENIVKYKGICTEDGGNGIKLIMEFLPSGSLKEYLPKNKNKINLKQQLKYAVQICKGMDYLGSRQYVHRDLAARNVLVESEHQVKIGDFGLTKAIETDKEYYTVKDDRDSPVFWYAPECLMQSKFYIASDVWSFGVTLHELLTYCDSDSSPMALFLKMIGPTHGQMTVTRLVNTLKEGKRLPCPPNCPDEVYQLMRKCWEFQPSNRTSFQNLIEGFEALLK
T4 sequence (O60674 849-1124 limits assumed): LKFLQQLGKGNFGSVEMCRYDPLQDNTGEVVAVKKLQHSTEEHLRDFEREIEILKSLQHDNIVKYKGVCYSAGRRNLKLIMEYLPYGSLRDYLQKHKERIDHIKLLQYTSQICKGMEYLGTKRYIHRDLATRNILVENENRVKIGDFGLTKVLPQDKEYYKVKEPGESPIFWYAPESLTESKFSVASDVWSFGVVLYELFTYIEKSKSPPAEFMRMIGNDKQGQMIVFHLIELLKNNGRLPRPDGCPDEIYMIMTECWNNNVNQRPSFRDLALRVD

For the compound `NS(=O)(=O)c1cnn(CC(=O)N2CCN(c3ncnc4[nH]ccc34)CC23CC3)c1` [Example 412, 1-{2-Oxo-2-[7-(7H-pyrrolo[2,3-d]pyrimidin-4-yl)-4,7-diaza-spiro[2.5]oct-4-yl]-ethyl}-1H-pyrazole-4-sulfonic acid amide], the EC50 in test [1] (setting [5]) is < 100 nM; in test [2] (setting [6]), > 500 nM; in test [3] (setting [7]), < 100 nM; in test [4] (setting [8]) it was < 100 nM.
In the case of `O=C(c1ccc(S(=O)(=O)C2CCCC2)cc1)N1CCN(c2ncnc3[nH]ccc23)CC12CC2` [Example 407, (4-Cyclopentanesulfonyl-phenyl)-[7-(7H-pyrrolo[2,3-d]pyrimidin-4-yl)-4,7-diaza-spiro[2.5]oct-4-yl]-methanone], the EC50 is < 100 nM in test [1] (setting [5]), > 500 nM in test [2] (setting [6]), > 500 nM in test [3] (setting [7]) and < 100 nM in test [4] (setting [8]).
In the case of `O=C(c1ccc2[nH]ccc2c1)N1[C@@H]2CC[C@H]1CN(c1ncnc3[nH]ccc13)C2` [Example 341, (1H-Indol-5-yl)-[3-(7H-pyrrolo[2,3-d]pyrimidin-4-yl)-3,8-diaza-bicyclo[3.2.1]oct-8-yl]-methanone], the EC50 was < 100 nM in test [1] (setting [5]), 100 to 500 nM in test [2] (setting [6]), < 100 nM in test [3] (setting [7]) and < 100 nM in test [4] (setting [8]).
Take `COCC(=S)N1CCN(c2ncnc3[nH]ccc23)CC12CC2` [Example 447, 2-Methoxy-1-[7-(7H-pyrrolo[2,3-d]pyrimidin-4-yl)-4,7-diaza-spiro[2.5]oct-4-yl]-ethanethione]: the EC50 in test [1] (setting [9]) was < 100 nM; in test [2] (setting [10]), 100 to 500 nM; in test [3] (setting [11]) it was 100 to 500 nM; in test [4] (setting [12]), < 100 nM.
Turning to `CSCCC(=O)N1CCN(c2ncnc3[nH]ccc23)CC12CC2` [Example 455, 3-Methylsulfanyl-1-[7-(7H-pyrrolo[2,3-d]pyrimidin-4-yl)-4,7-diaza-spiro[2.5]oct-4-yl]-propan-1-one], the EC50 in test [1] (setting [9]) is < 100 nM; in test [2] (setting [10]) it was 100 to 500 nM; in test [3] (setting [11]), < 100 nM; in test [4] (setting [12]) it was < 100 nM.
`N#CC1(C(=O)N2CCN(c3nc(N)nc4[nH]ccc34)CC23CC3)CC1` [Example 308, 1-[7-(2-Amino-7H-pyrrolo[2,3-d]pyrimidin-4-yl)-4,7-diaza-spiro[2.5]octane-4-carbonyl]-cyclopropanecarbonitrile]: the half-maximal effective concentration (EC50) in test [1] (setting [5]) is 100 to 500 nM; in test [2] (setting [6]), > 500 nM; in test [3] (setting [7]), 100 to 500 nM; in test [4] (setting [8]), < 100 nM.
`CS(=O)(=O)c1cccc(CC(=O)N2CCN(c3ncnc4[nH]ccc34)CC23CC3)c1` [Example 101, 2-(3-Methanesulfonyl-phenyl)-1-[7-(7H-pyrrolo[2,3-d]pyrimidin-4-yl)-4,7-diaza-spiro[2.5]oct-4-yl]-ethanone]: the EC50 is 100 to 500 nM in test [1] (setting [13]), > 500 nM in test [2] (setting [14]), 100 to 500 nM in test [3] (setting [15]) and 100 to 500 nM in test [4] (setting [16]).
For `Nc1nc(N2CCN(C(=O)c3cnc4ccccc4n3)C3(CC3)C2)c2cc[nH]c2n1` [Example 305, [7-(2-Amino-7H-pyrrolo[2,3-d]pyrimidin-4-yl)-4,7-diaza-spiro[2.5]oct-4-yl]-quinoxalin-2-yl-methanone], the EC50 in test [1] (setting [5]) was < 100 nM; in test [2] (setting [6]) it was 100 to 500 nM; in test [3] (setting [7]), 100 to 500 nM; in test [4] (setting [8]), < 100 nM.
For the compound `N#Cc1csc(C(=O)N2CCN(c3ncnc4[nH]ccc34)CC23CC3)c1` [Example 60, 5-[7-(7H-Pyrrolo[2,3-d]pyrimidin-4-yl)-4,7-diaza-spiro[2.5]octane-4-carbonyl]-thiophene-3-carbonitrile], the EC50 in test [1] (setting [13]), in test [2] (setting [14]), in test [3] (setting [15]) and in test [4] (setting [16]) was < 100 nM each time.
For the compound `O=C1CCC(C(=O)N2CCN(c3ncnc4[nH]ccc34)CC23CC3)CC1` [Example 23, 4-[7-(7H-Pyrrolo[2,3-d]pyrimidin-4-yl)-4,7-diazaspiro[2.5]octane-4-carbonyl]cyclohexanone], the EC50 was < 100 nM in test [1] (setting [13]), 100 to 500 nM in test [2] (setting [14]), < 100 nM in test [3] (setting [15]) and < 100 nM in test [4] (setting [16]).
As for `O=C(C1CCOC1)N1CCN(c2ncnc3[nH]ccc23)CC12CC2` (stereo not shown) [Example 7, [7-(7H-Pyrrolo[2,3-d]pyrimidin-4-yl)-4,7-diazaspiro[2.5]oct-4-yl]-(tetrahydrofuran-3-yl)methanone], the EC50 is 100 to 500 nM in test [1] (setting [13]), > 500 nM in test [2] (setting [14]), 100 to 500 nM in test [3] (setting [15]) and < 100 nM in test [4] (setting [16]).
For the compound `O=C(Cc1cc(Br)cs1)N1CCN(c2ncnc3[nH]ccc23)CC12CC2` [Example 387, 2-(4-Bromo-thiophen-2-yl)-1-[7-(7H-pyrrolo[2,3-d]pyrimidin-4-yl)-4,7-diaza-spiro[2.5]oct-4-yl]-ethanone], the EC50 is < 100 nM in test [1] (setting [5]), 100 to 500 nM in test [2] (setting [6]), < 100 nM in test [3] (setting [7]) and < 100 nM in test [4] (setting [8]).
With `COc1cc(OC)cc(C(=O)N2CCN(c3ncnc4[nH]ccc34)CC23CC3)c1` [Example 213, (3,5-Dimethoxy-phenyl)-[7-(7H-pyrrolo[2,3-d]pyrimidin-4-yl)-4,7-diaza-spiro[2.5]oct-4-yl]-methanone], the EC50 in test [1] (setting [5]) was < 100 nM; in test [2] (setting [6]), 100 to 500 nM; in test [3] (setting [7]), 100 to 500 nM; in test [4] (setting [8]), < 100 nM.
For `Cc1c[nH]c2ncnc(N3CCN(C(=O)Cc4ccc(CC#N)cc4)C4(CC4)C3)c12` [Example 328, (4-{2-[7-(5-Methyl-7H-pyrrolo[2,3-d]pyrimidin-4-yl)-4,7-diaza-spiro[2.5]oct-4-yl]-2-oxo-ethyl}-phenyl)-acetonitrile], the EC50 in test [1] (setting [5]) is > 500 nM; in test [2] (setting [6]), > 500 nM; in test [3] (setting [7]), 100 to 500 nM; in test [4] (setting [8]) it was > 500 nM.
As for `CS(=O)(=O)c1ccc(C(=O)N2CCN(c3ncnc4[nH]ccc34)CC23CC3)cc1N1CCCC1` [Example 194, (4-Methanesulfonyl-3-pyrrolidin-1-yl-phenyl)-[7-(7H-pyrrolo[2,3-d]pyrimidin-4-yl)-4,7-diaza-spiro[2.5]oct-4-yl]-methanone], the EC50 in test [1] (setting [13]) was < 100 nM; in test [2] (setting [14]), > 500 nM; in test [3] (setting [15]), 100 to 500 nM; in test [4] (setting [16]), < 100 nM.
For the compound `Cn1cc(S(N)(=O)=O)cc1C(=O)N1CCN(c2ncnc3[nH]ccc23)CC12CC2` [Example 188, 1-Methyl-5-[7-(7H-pyrrolo[2,3-d]pyrimidin-4-yl)-4,7-diaza-spiro[2.5]octane-4-carbonyl]-1H-pyrrole-3-sulfonic acid amide], the EC50 in test [1] (setting [13]), in test [2] (setting [14]), in test [3] (setting [15]) and in test [4] (setting [16]) was < 100 nM in each case.
With `Cc1c(C(=O)N2CCN(c3ncnc4[nH]ccc34)CC23CC3)[nH]c2ccc(F)cc12` [Example 185, (5-Fluoro-3-methyl-1H-indol-2-yl)-[7-(7H-pyrrolo[2,3-d]pyrimidin-4-yl)-4,7-diaza-spiro[2.5]oct-4-yl]-methanone], the EC50 in test [1] (setting [13]) is 100 to 500 nM; in test [2] (setting [14]) it was > 500 nM; in test [3] (setting [15]), > 500 nM; in test [4] (setting [16]), 100 to 500 nM.
Take `O=C(c1cccs1)N1CCN(c2ncnc3[nH]ccc23)CC12CC2` [Example 211, [7-(7H-Pyrrolo[2,3-d]pyrimidin-4-yl)-4,7-diaza-spiro[2.5]oct-4-yl]-thiophen-2-yl-methanone]: the EC50 in test [1] (setting [5]) was < 100 nM; in test [2] (setting [6]), 100 to 500 nM; in test [3] (setting [7]) it was < 100 nM; in test [4] (setting [8]) it was < 100 nM.
In the case of `COCCNS(=O)(=O)c1ccc(C(=O)N2CCN(c3ncnc4[nH]ccc34)CC23CC3)cc1` [Example 396, N-(2-Methoxy-ethyl)-4-[7-(7H-pyrrolo[2,3-d]pyrimidin-4-yl)-4,7-diaza-spiro[2.5]octane-4-carbonyl]-benzenesulfonamide], the EC50 in test [1] (setting [5]) was < 100 nM; in test [2] (setting [6]) it was 100 to 500 nM; in test [3] (setting [7]) it was < 100 nM; in test [4] (setting [8]) it was < 100 nM.

One may read the EC50 as the concentration at which the effect is half-maximal.

(Values after US9346809B2 (LEO PHARMA A/S, priority 2009, dated 2016).)
